From ChEMBL document CHEMBL3046781, “Resistance of Helicoverpa assulta (Guenée) (Lepidoptera: Noctuidae) to fenvalerate, phoxim and methomyl in China” (2009)

Legend:
Assay type in all cases: functional
Helicoverpa assulta [1] = assay: Resistance factor, ratio of LD50 for sixth-instar larvae of Helicoverpa assulta HN2 to LD50 for sixth-instar larvae of Helicoverpa assulta at 1.8 to 183360 mg/l
Helicoverpa assulta [2] = assay: Resistance factor, ratio of LD50 for sixth-instar larvae of Helicoverpa assulta HB2 to LD50 for sixth-instar larvae of Helicoverpa assulta at 1.8 to 183360 mg/l
Helicoverpa assulta [3] = assay: Resistance factor, ratio of LD50 for sixth-instar larvae of Helicoverpa assulta GZ4 to LD50 for sixth-instar larvae of Helicoverpa assulta at 1.8 to 183360 mg/l
Helicoverpa assulta [4] = assay: Resistance factor, ratio of LD50 for sixth-instar larvae of Helicoverpa assulta YN5 to LD50 for sixth-instar larvae of Helicoverpa assulta at 1.8 to 183360 mg/l
Helicoverpa assulta [5] = assay: Insecticidal activity against sixth-instar larvae of Helicoverpa assulta HN2 at 1.8 to 183360 mg/l after 48 hr by chi-squared analysis
Helicoverpa assulta [6] = assay: Insecticidal activity against sixth-instar larvae of Helicoverpa assulta YN2 at 1.8 to 183360 mg/l after 48 hr by chi-squared analysis
Helicoverpa assulta [7] = assay: Insecticidal activity against sixth-instar larvae of Helicoverpa assulta YN7 at 1.8 to 183360 mg/l after 48 hr by chi-squared analysis
Helicoverpa assulta [8] = assay: Insecticidal activity against sixth-instar larvae of Helicoverpa assulta AH3 at 1.8 to 183360 mg/l after 48 hr by chi-squared analysis
Helicoverpa assulta [9] = assay: Insecticidal activity against sixth-instar larvae of Helicoverpa assulta YN6 at 1.8 to 183360 mg/l after 48 hr by chi-squared analysis
Helicoverpa assulta [10] = assay: Insecticidal activity against sixth-instar larvae of Helicoverpa assulta YN1 at 1.8 to 183360 mg/l after 48 hr by chi-squared analysis
Helicoverpa assulta [11] = assay: Insecticidal activity against sixth-instar larvae of Helicoverpa assulta YN5 at 21 to 3390 mg/l after 48 hr by chi-squared analysis
Helicoverpa assulta [12] = assay: Resistance factor, ratio of LD50 for sixth-instar larvae of Helicoverpa assulta AH1 to LD50 for sixth-instar larvae of Helicoverpa assulta at 21 to 3390 mg/l
Helicoverpa assulta [13] = assay: Insecticidal activity against sixth-instar larvae of Helicoverpa assulta GZ3 at 21 to 3390 mg/l after 48 hr by chi-squared analysis
Helicoverpa assulta [14] = assay: Insecticidal activity against sixth-instar larvae of Helicoverpa assulta AH3 at 21 to 3390 mg/l after 48 hr by chi-squared analysis
Helicoverpa assulta [15] = assay: Resistance factor, ratio of LD50 for sixth-instar larvae of Helicoverpa assulta YN4 to LD50 for sixth-instar larvae of Helicoverpa assulta at 21 to 3390 mg/l
Helicoverpa assulta [16] = assay: Resistance factor, ratio of LD50 for sixth-instar larvae of Helicoverpa assulta HB1 to LD50 for sixth-instar larvae of Helicoverpa assulta at 21 to 3390 mg/l
Helicoverpa assulta [17] = assay: Resistance factor, ratio of LD50 for sixth-instar larvae of Helicoverpa assulta HN2 to LD50 for sixth-instar larvae of Helicoverpa assulta at 21 to 3390 mg/l
Helicoverpa assulta [18] = assay: Insecticidal activity against sixth-instar larvae of Helicoverpa assulta YN1 at 21 to 3390 mg/l after 48 hr by chi-squared analysis
Helicoverpa assulta [19] = assay: Insecticidal activity against sixth-instar larvae of Helicoverpa assulta GZ1 at 21 to 3390 mg/l after 48 hr by chi-squared analysis
Helicoverpa assulta [20] = assay: Insecticidal activity against sixth-instar larvae of Helicoverpa assulta FJ2 at 21 to 3390 mg/l after 48 hr by chi-squared analysis
Helicoverpa assulta [21] = assay: Insecticidal activity against sixth-instar larvae of Helicoverpa assulta YN2 at 21 to 3390 mg/l after 48 hr by chi-squared analysis
Helicoverpa assulta [22] = assay: Insecticidal activity against sixth-instar larvae of Helicoverpa assulta AH2 at 21 to 3390 mg/l after 48 hr by chi-squared analysis
Helicoverpa assulta [23] = assay: Resistance factor, ratio of LD50 for sixth-instar larvae of Helicoverpa assulta SD2 to LD50 for sixth-instar larvae of Helicoverpa assulta at 39 to 12630 mg/l
Helicoverpa assulta [24] = assay: Resistance factor, ratio of LD50 for sixth-instar larvae of Helicoverpa assulta HN1 to LD50 for sixth-instar larvae of Helicoverpa assulta at 39 to 12630 mg/l
Helicoverpa assulta [25] = assay: Resistance factor, ratio of LD50 for sixth-instar larvae of Helicoverpa assulta HB1 to LD50 for sixth-instar larvae of Helicoverpa assulta at 39 to 12630 mg/l
Helicoverpa assulta [26] = assay: Insecticidal activity against sixth-instar larvae of Helicoverpa assulta YN7 at 39 to 12630 mg/l after 48 hr by chi-squared analysis
Helicoverpa assulta [27] = assay: Insecticidal activity against sixth-instar larvae of Helicoverpa assulta YN8 at 39 to 12630 mg/l after 48 hr by chi-squared analysis
Helicoverpa assulta [28] = assay: Insecticidal activity against sixth-instar larvae of Helicoverpa assulta GZ1 at 39 to 12630 mg/l after 48 hr by chi-squared analysis
Helicoverpa assulta [29] = assay: Insecticidal activity against sixth-instar larvae of Helicoverpa assulta FJ2 at 39 to 12630 mg/l after 48 hr by chi-squared analysis
Helicoverpa assulta [30] = assay: Insecticidal activity against sixth-instar larvae of Helicoverpa assulta YN6 at 39 to 12630 mg/l after 48 hr by chi-squared analysis
Helicoverpa assulta [31] = assay: Insecticidal activity against sixth-instar larvae of Helicoverpa assulta FJ3 at 39 to 12630 mg/l after 48 hr by chi-squared analysis
Helicoverpa assulta [32] = assay: Insecticidal activity against sixth-instar larvae of Helicoverpa assulta SD2 at 39 to 12630 mg/l after 48 hr by chi-squared analysis
Helicoverpa assulta [33] = assay: Insecticidal activity against sixth-instar larvae of Helicoverpa assulta HB2 at 39 to 12630 mg/l after 48 hr by chi-squared analysis
Helicoverpa assulta [34] = assay: Resistance factor, ratio of LD50 for sixth-instar larvae of Helicoverpa assulta AH3 to LD50 for sixth-instar larvae of Helicoverpa assulta at 39 to 12630 mg/l
Helicoverpa assulta [35] = assay: Resistance factor, ratio of LD50 for sixth-instar larvae of Helicoverpa assulta YN5 to LD50 for sixth-instar larvae of Helicoverpa assulta at 39 to 12630 mg/l

CC(C)C(C(=O)OC(C#N)c1cccc(Oc2ccccc2)c1)c1ccc(Cl)cc1 (configuration not stated) [FENVALERATE] was tested. Which Ratio (Helicoverpa assulta [1]) did it give?
Its Ratio is 7.23.

What about the Ratio (Helicoverpa assulta [2]) of the same compound?
Its Ratio is 28.5.

What about the Ratio (Helicoverpa assulta [3]) of the same compound?
The Ratio was 347.

What about the Ratio (Helicoverpa assulta [4]) of the same compound?
The Ratio was 8816.

What about the LD90 (Helicoverpa assulta [5]) of the same compound?
Its LD90 is 7.63 µg/g.

And the LD50 (Helicoverpa assulta [5]; Helicoverpa assulta, HN2, 48 h)?
The LD50 was 1.17 mg/kg.

And the LD90 (Helicoverpa assulta [6])?
Its LD90 is 673 µg/g.

And the LD50 (Helicoverpa assulta [6]; Helicoverpa assulta, YN2, 48 h)?
The LD50 was 213 mg/kg.

And the LD90 (Helicoverpa assulta [7])?
Its LD90 is 507 µg/g.

What about the LD50 (Helicoverpa assulta [7]; Helicoverpa assulta, YN7, 48 h) of the same compound?
The LD50 was 249 mg/kg.

And the LD90 (Helicoverpa assulta [8])?
The LD90 was 470 µg/g.

What about the LD50 (Helicoverpa assulta [8]; Helicoverpa assulta, AH3, 48 h) of the same compound?
The LD50 was 251 mg/kg.

And the LD90 (Helicoverpa assulta [9])?
Its LD90 is 1467 µg/g.

And the LD50 (Helicoverpa assulta [9]; Helicoverpa assulta, YN6, 48 h)?
Its LD50 is 667 mg/kg.

And the LD90 (Helicoverpa assulta [10])?
The LD90 was 4059 µg/g.

And the LD50 (Helicoverpa assulta [10]; Helicoverpa assulta, YN1, 48 h)?
Its LD50 is 1360 mg/kg.

CNC(=O)ON=C(C)SC [METHOMYL] was tested. Which LD90 (Helicoverpa assulta [11]) did it give?
The LD90 was 37.7 µg/g.

What about the LD50 (Helicoverpa assulta [11]; Helicoverpa assulta, YN5, 48 h) of the same compound?
Its LD50 is 14.3 mg/kg.

What about the Ratio (Helicoverpa assulta [12]) of the same compound?
Its Ratio is 37.1.

What about the LD90 (Helicoverpa assulta [13]) of the same compound?
Its LD90 is 66.7 µg/g.

And the LD50 (Helicoverpa assulta [13]; Helicoverpa assulta, GZ3, 48 h)?
Its LD50 is 20.8 mg/kg.

And the LD90 (Helicoverpa assulta [14])?
Its LD90 is 44.7 µg/g.

And the LD50 (Helicoverpa assulta [14]; Helicoverpa assulta, AH3, 48 h)?
Its LD50 is 18.4 mg/kg.

What about the Ratio (Helicoverpa assulta [15]) of the same compound?
Its Ratio is 11.5.

And the Ratio (Helicoverpa assulta [16])?
The Ratio was 8.45.

And the Ratio (Helicoverpa assulta [17])?
Its Ratio is 2.93.

And the LD90 (Helicoverpa assulta [18])?
Its LD90 is 225 µg/g.

What about the LD50 (Helicoverpa assulta [18]; Helicoverpa assulta, YN1, 48 h) of the same compound?
Its LD50 is 45.6 mg/kg.

And the LD90 (Helicoverpa assulta [19])?
The LD90 was 131 µg/g.

What about the LD50 (Helicoverpa assulta [19]; Helicoverpa assulta, GZ1, 48 h) of the same compound?
The LD50 was 41.8 mg/kg.

And the LD90 (Helicoverpa assulta [20])?
The LD90 was 108 µg/g.

What about the LD50 (Helicoverpa assulta [20]; Helicoverpa assulta, FJ2, 48 h) of the same compound?
Its LD50 is 28.7 mg/kg.

And the LD90 (Helicoverpa assulta [21])?
The LD90 was 84.1 µg/g.

And the LD50 (Helicoverpa assulta [21]; Helicoverpa assulta, YN2, 48 h)?
Its LD50 is 26.6 mg/kg.

What about the LD90 (Helicoverpa assulta [22]) of the same compound?
Its LD90 is 59.6 µg/g.

And the LD50 (Helicoverpa assulta [22]; Helicoverpa assulta, AH2, 48 h)?
Its LD50 is 22.1 mg/kg.

Which results are given for CCOP(=S)(OCC)O/N=C(\C#N)c1ccccc1 [PHOXIM]?
Ratio (Helicoverpa assulta [23]): 7.37; Ratio (Helicoverpa assulta [24]): 4.5; Ratio (Helicoverpa assulta [25]): 3.49; LD90 (Helicoverpa assulta [26]): 131 µg/g; LD50 (Helicoverpa assulta [26]; Helicoverpa assulta, YN7, 48 h): 41.8 mg/kg; LD90 (Helicoverpa assulta [27]): 105 µg/g; LD50 (Helicoverpa assulta [27]; Helicoverpa assulta, YN8, 48 h): 40.3 mg/kg; LD90 (Helicoverpa assulta [28]): 124 µg/g; LD50 (Helicoverpa assulta [28]; Helicoverpa assulta, GZ1, 48 h): 33.3 mg/kg; LD90 (Helicoverpa assulta [29]): 86.5 µg/g; LD50 (Helicoverpa assulta [29]; Helicoverpa assulta, FJ2, 48 h): 22 mg/kg; LD90 (Helicoverpa assulta [30]): 72 µg/g; LD50 (Helicoverpa assulta [30]; Helicoverpa assulta, YN6, 48 h): 21.3 mg/kg; LD90 (Helicoverpa assulta [31]): 36.9 µg/g; LD50 (Helicoverpa assulta [31]; Helicoverpa assulta, FJ3, 48 h): 19 mg/kg; LD90 (Helicoverpa assulta [32]): 50.5 µg/g; LD50 (Helicoverpa assulta [32]; Helicoverpa assulta, SD2, 48 h): 17.2 mg/kg; LD90 (Helicoverpa assulta [33]): 37.4 µg/g; LD50 (Helicoverpa assulta [33]; Helicoverpa assulta, HB2, 48 h): 11.8 mg/kg; Ratio (Helicoverpa assulta [34]): 14.3; Ratio (Helicoverpa assulta [35]): 11
